# In patent US20250152580A1, “METHODS FOR TREATING IMMUNE DISEASES” (Ascentage Pharma (Suzhou) co., Ltd., priority 2022, published 2025):
# “Also recorded” adds a separate entry of the source.
# Columns and labels:
# Assay type in all cases: in vivo
# [1] = test system: LPS inhalation induced lung neutrophils infiltration model; assay: LPS inhalation induced neutrophils infiltration model in C57BL/6 mice; settings: Cpd. 4 50 mg/kg oral each day, Cpd. X 50 mg/kg iv twice a week, Cpd. XI 12 mg/kg iv twice a week, week 4-10, compared with Vehicle
# Experimental: C57BL/6 mice (6-8 weeks old) were obtained from Shanghai LC Laboratory Animal Co. Ltd. Animals, housed and handled in a temperature-controlled environment with a 12-h light/12-h dark cycle. A total of 60 female C57BL/6J mice will be modeled by atomization inhalation LPS 3 times a week for 10 weeks (adjustments may be made according to animal health status). LPS concentration is at 0.7 mg/mL. On each day of challenge, animals in G1 will receive aerosol inhalation of PBS and intravenous injection of Vehicle; animals in G2 will receive aerosol inhalation of LPS and intravenous injection of Vehicle; animals in G3 will be given aerosol inhalation of LPS and intravenous injection of 50 mg/kg Cpd. X twice a week (D1/4) from week 4-10; animals in G4 will be given aerosol inhalation of LPS and intravenous injection of 12 mg/kg Cpd.XI twice a week (D1/4) from week 4-10; animals in G5 will be given aerosol inhalation of LPS and oral administration of 50 mg/kg Cpd. 4 each day from week 4-10; animals in G6 will be given aerosol inhalation of LPS and oral administration of dexamethasone 1 hour before each challenge. Lungs will be gently lavaged via the tracheal cannula with 0.8 mL of PBS containing 1% BSA and 0.6 mM EDTA 48 hr after the last LPS exposure. The procedure will be repeated twice with 0.8 mL of PBS containing 1% BSA and 0.6 mM EDTA. The bronchoalveolar lavage fluid (BALF) will be centrifuged at 300×g for 5 min at 4° C., the cell pellet will be resuspended in 1.5 mL PBS. Total numbers of neutrophils in BALF will be counted using a hemocytometer.
# OVA induced asthma model = assay: OVA (ovalbumin) induced asthma model in Balb/cA mice
# From the text: Ovalbumin (OVA)-sensitized and challenged BALB/c mice are widely used as an asthma model and are characterized by high levels of serum IgE, airway inflammation, epithelial hypertrophy, goblet cell hyperplasia, and AHR, which are similar to the features observed in human allergic asthma.
# Female Balb/cA mice (8 weeks old) were obtained from Shanghai Jihui Laboratory Animal Co. Ltd. Animals were housed and handled in a temperature-controlled environment with a 12-h light/12-h dark cycle. A total of 66 mice were assigned to 6 groups by randomization based on body weight.
# Mice in Group 2 are intraperitoneally immunized with OVA (25 μg) emulsified in Imject alum (2.0 mg of Al[OH]3) on day 1. During this sensitization phase, the mice produce anti-OVA IgE antibodies, which bind IgE receptors on mast cells. After this sensitization, the mice are intratracheally challenged with OVA from day 8 today 14, resulting in OVA cross-linked IgE on mast cells and leading to degranulating mast cells. Mice then develop clinical features of asthma. The mice in the Group 1 normal control group were sensitized and challenged with […] (without OVA).
# Mice in Group 1 and Group 2 were treated with vehicle for 7 days (po, qd, from day 8 to day 14). Mice in Group 3 were treated with 50 mg/kg Cpd. X for 8 days (iv, biw, day 1 and day 4). Mice in Group 4 were treated with 30 mg/kg Cpd. 4 for 7 days (po, qd, from day 8 to day 14). Mice in Group 5 were treated with 100 mg/kg Cpd. 4 for 7 days (po, qd, from day 8 to day 14). 3 mg/kg dexamethasone was used as positive control which was orally administered to mice in Group 6 for 7 days (qd, from day 8 to day 14). The protocols and procedures involving the care and use of animals were approved by the Institutional Animal Care and Use Committee (IACUC) at KCI (Suzhou, China).
# Airway responsiveness was determined invasively based on lung resistance.
# After challenge with aerosolized methacholine. Briefly, mice were challenged with methacholine aerosol in increasing concentrations (0, 6.25, 12.5, and 25 mg/mL in saline) on day 13 by using the noninvasive pulmonary function instrument. Data on lung resistance were continuously collected, and mean values were selected to express changes in airway function and regarded as one form of inflammation expression. Data are presented as the airway stenosis index (penh).
# Twenty-four hours after the final OVA challenge (on day 15), mice were killed, and BAL cells were collected by means of slow injection of ice-cold PBS into the trachea, which was repeated 3 times. Numbers of cells in BAL fluid were counted with a chamber. Number of eosinophils in a total of 100 cells was counted under a microscope. Results are expressed as percentage of eosinophils of BAL fluid.
# Twenty-four hours after the final OVA challenge (on day 15), mice were killed, and the serum was collected. The OVA-specific IgE levels were measured with the method of enzyme linked immunosorbent assay (ELISA) according to manufacturer protocol.
# Twenty-four hours after the final OVA challenge (on day 15), mice were killed, and the lung tissue samples were collected and fixed in 4% paraformaldehyde. Then, they were embedded in paraffin and cut into […] sections for histopathological analysis. Lung sections were then stained with hematoxylin and eosin (H&E) to calculate the inflammatory changes. The histopathological score was evaluated microscopically in a blinded manner. Five arbitrarily selected fields of each mouse were photographed with an optical microscope and the images were determined and analyzed in detail. […]
# [2] = test system: TNBS induced inflammatory bowel disease (IBD) model; assay: TNBS induced inflammatory bowel disease (IBD) model in Balb/c mice; settings: 50 mg/kg po qd, mesalamine day −1 to day 6, compared with Vehicle
# From the text: There are two kinds of IBD: Crohn's disease (CD) and ulcerative colitis (UC). TNBS administration results in a preclinical mouse model replicating clinical Crohn's disease.
# Female Balb/c mice (8 weeks old) were obtained from Beijing Vital River Laboratory Animal Co. Ltd. Animals were housed and handled in a temperature-controlled environment with a 12-h light/12-h dark cycle. A total of 50 mice were assigned to 5 groups by randomization based on body weight.
# On Day 0, the mice weighing 18-20 g were anesthetized with […] (Easycheck, M2910). The mice were further intra-rectally injected 100 μL 1.5% TNBS solution (final concentration 50% ethanol) in the vehicle group and other treatment groups. For the Sham group, the mice were intra-rectally injected with 50% ethanol at the same volume.
# Mice in Group 1 and Group 2 were treated with vehicle for 8 days (po, qd, from day −1 to day 6). Mice in Group 3 were treated with 50 mg/kg Cpd. 4 for 8 days (preventive regimen, po, qd, from day −1 to day 6). Mice in Group 4 were treated with 50 mg/kg Cpd. 4 for 6 days (therapeutic regimen, po, qd, from day 1 to day 6). 50 mg/kg Mesalamine was used as positive control which was orally administered to mice in Group 5 for 8 days (preventive regimen, qd, from day −1 to day 6). The protocols and procedures involving the care and use of animals were approved by the Institutional Animal Care and Use Committee (IACUC) at WuxiApptec (Shanghai, China).
# Clinical signs of IBD were assessed every day based on the score of disease activity index (DAI) which was evaluated from three parameters using a scoring system from 0 to 4: stool consistency (0, normal stool; 1, soft but still formed stool; 2, soft and not formed stool; 3, very soft and wet stool; 4, watery diarrhea), bleeding score (0, negative hemoccult; 1, weak positive hemoccult; 2, positive hemoccult; 3, blood trace in stool visible; 4, gross rectal bleeding) and body weight loss (0, no body weight loos; 1, 1-5% body weight loss; 2, 6-10% body weight loss; 3, 11-20% body weight loss; 4, >20% body weight loss).
# At the end of induction with TNBS (day 7), the animals were euthanized, dissected and the entire colon was quickly removed and gently cleared of feces.
# The entire colon was weighed, and the total length was measured. Colon weight gain and shortening is an indirect marker of inflammation. As expected, colon weight induced by TNBS increased to 336.8±25.15 mg. […] The TNBS-induced colon weight increasement were improved by Cpd. 4 treatment (202.4±3.95 mg for 50 mg/kg Cpd. 4 preventive therapy and 214.4±5.17 mg for 50 mg/kg Cpd. 4 therapeutic therapy) (FIG. 2).
# At the end of induction with TNBS, the animals were euthanized, and blood was collected immediately by the heart punctures and used for whole blood cell analysis.
# At the end of the study (day 7), the cell suspensions from sham control, model control and Cpd. 4 therapeutic treatment groups were obtained from mesenteric lymph nodes (MLN). Cells were stained with the following florescence-labelled antibodies: APC-Cy7-conjugated anti-mouse CD45, BV510-conjugated anti-mouse CD3e, AF700-conjugated anti-mouse CD8a, BUV395-conjugated anti-mouse CD4, BV421-conjugated anti-mouse CD25, FITC-conjugated anti-mouse Foxp3, BV650-conjugated anti-mouse IFN-γ, BV786-conjugated anti-mouse IL-17A, BB700-conjugated anti-mouse TNF-α, APC-conjugated anti-mouse B220, BV395-conjugated anti-mouse CD3e, BV605-conjugated anti-mouse CD11b, BB700-conjugated anti-mouse CD11c, AF488-conjugated anti-mouse MHCII, BV421-conjugated anti-mouse NK1.1, BV510-conjugated anti-mouse Ly6G, PE-Cy7-conjugated anti-mouse CD107a and PE-CF594-conjugated anti-mouse F4/80. All cells were primarily gated on single and live lymphocytes based on forward scatter (FCS), side scatter (SSC) and live/dead staining buffer. Samples were analyzed on a flow cytometer (BD LSRFortessa) to count the percentage of each subtype of lymphocytes. […]
# [3] = test system: IMQ induced psoriasis model; assay: IMQ induced psoriasis model in Balb/c mice; settings: Cpd. 4 100 mg/kg po qd day 0-6; tofacitinib 30 mg/kg po bid; compared with Vehicle
# From the text: Imiquimod (IMQ) is a ligand for TLRs (Toll-like receptors) of immune cells (including macrophages, monocytes and plasmacytoid dendritic cells), and therefore contributes to strong activation of the immune system.
# Female Balb/c mice (7-8 weeks old) were obtained from B&K Universal Animal Co. Ltd. Animals were housed and handled in a temperature-controlled environment with a 12-h light/12-h dark cycle. A total of 36 mice were assigned to 4 groups by randomization based on body weight (6 mice in normal control group and 10 mice in other 3 groups).
# At the beginning of the study on day 0, five groups were administered a daily topical dose of 80 mg of a cream preparation containing 5% IMQ on their hair-free backs to establish a model of IMQ-induced psoriasis for seven consecutive days. The G1 normal control group received appropriate vaseline.
# Mice in Group 1 and Group 2 were treated with vehicle for 7 days (po, qd, from day 0 to day 6). Mice in Group 3 were treated with 100 mg/kg Cpd. 4 for 7 days (po, qd, from day 0 to day 6). Mice in Group 4 were treated with 30 mg/kg tofacitinib for 7 days (po, bid, from day 0 to day 6). The protocols and procedures involving the care and use of animals were approved by the Institutional Animal Care and Use Committee (IACUC) at KCI (Suzhou, China).
# The severity of skin inflammation was monitored and graded using a modified human scoring system Psoriasis Area Severity Index (PASI). Scaling, thickness, and erythema were scored separately on a scale from 0 to 4:0, none; 1, slight; 2, moderate; 3, marked; and 4, very marked. The total score denotes severity of inflammation. Ear thickness of mice was measured every day from day 0 to day 7.
# Ear thickness of mice was measured every day from day 0 to day 7. […] Compared with G1 normal control group, after IMQ treatment, ear swelling was observed indicated by increased ear thickness in G2 group reaching the maximal ear thickness to 0.40±0.02 mm on day 7. Cpd.
# [4] = day 15, Cpd. 4 30 and 100 mg/kg po qd, Cpd. X 50 mg/kg iv biw, dexamethasone 3 mg/kg po qd, compared with Vehicle
# [5] = Cpd. 4 preventive and therapeutic
smiles,measurement,setting,value
Cc1c(S(C)(=O)=O)c(-c2cc(F)cc(N3CCN(c4ccc(NS(=O)(=O)c5ccc(N[C@H](CCN6CCC(C(=O)O)CC6)CSc6ccccc6)c(S(=O)(=O)C(F)(F)F)c5)cc4)CC3)c2)c(-c2ccc(Cl)cc2)n1C(C)C [Cpd. XI],BALF neutrophils (infiltration in lung),[1],significantly reduced
same,BALF neutrophils (infiltration in lung),[1]; listed as Cpd.XI,significantly reducing the BALF neutrophils
Cc1c(S(C)(=O)=O)c(-c2cc(F)cc(N3CCN(c4ccc(NS(=O)(=O)c5ccc(N[C@H](CCN6CCC(C(=O)OCCCP(=O)(O)O)CC6)CSc6ccccc6)c(S(=O)(=O)C(F)(F)F)c5)cc4)CC3)c2)c(-c2ccc(Cl)cc2)n1C(C)C [Cpd. X],pathological score in lung tissues (H&E),"OVA induced asthma model; 50 mg/kg iv biw, day 15, vehicle 4.08±0.23",2.58±0.15
same,pathological score in lung tissues (in words),"OVA induced asthma model; Cpd. 4 and Cpd. X, compared with Vehicle",significantly ameliorated
same,percentage of eosinophils in BALF,OVA induced asthma model; [4],downregulated markedly; also recorded: significantly downregulated
same,serum OVA-specific IgE (ELISA),OVA induced asthma model; [4],significantly reduced
same,"airway stenosis index (penh), airway hyper-responsiveness (AHR)","OVA induced asthma model; methacholine challenge day 13, Cpd. 4 30 and 100 mg/kg po qd day 8-14, Cpd. X 50 mg/kg iv biw, dexamethasone 3 mg/kg po qd, compared with Vehicle",significant inhibitory activity; also recorded: significantly reduced
same,BALF neutrophils (infiltration in lung),[1],significantly reducing the BALF neutrophils; also recorded: significantly reduced
"Nc1ccc(O)c(C(=O)O)c1 [mesalamine, Mesalamine, reference compound]","disease activity index (DAI), clinical score of IBD",[2]; Cpd. 4 preventive (day −1 to day 6) and therapeutic (day 1 to day 6) regimens,significantly lowered DAI
same,colon length (in words),[2]; [5],significantly increased the colon length
same,colon weight (in words),[2]; [5],significantly reduced the colon weight
"C[C@@H]1CCN(C(=O)CC#N)C[C@@H]1N(C)c1ncnc2[nH]ccc12 [tofacitinib, reference compound]",PASI score (Psoriasis Area Severity Index),[3],significantly lower PASI
